Measured values as given in PubChem BioAssay AID624000 (Vanderbilt Specialized Chemistry Center, 2012).

Target: Phospholipase D2 (Homo sapiens) + Phospholipase D2 (Homo sapiens) (UniProt O14939+O14939)
Assay: purified PLD2 enzyme inhibitors, dose response, biochemical, assay 3B, library 32 (AID 624000)
Conditions: purified PLD2 enzyme activity

Phospholipase D2 (Homo sapiens) + Phospholipase D2 (Homo sapiens), sequence (O14939 whole entry, looked up): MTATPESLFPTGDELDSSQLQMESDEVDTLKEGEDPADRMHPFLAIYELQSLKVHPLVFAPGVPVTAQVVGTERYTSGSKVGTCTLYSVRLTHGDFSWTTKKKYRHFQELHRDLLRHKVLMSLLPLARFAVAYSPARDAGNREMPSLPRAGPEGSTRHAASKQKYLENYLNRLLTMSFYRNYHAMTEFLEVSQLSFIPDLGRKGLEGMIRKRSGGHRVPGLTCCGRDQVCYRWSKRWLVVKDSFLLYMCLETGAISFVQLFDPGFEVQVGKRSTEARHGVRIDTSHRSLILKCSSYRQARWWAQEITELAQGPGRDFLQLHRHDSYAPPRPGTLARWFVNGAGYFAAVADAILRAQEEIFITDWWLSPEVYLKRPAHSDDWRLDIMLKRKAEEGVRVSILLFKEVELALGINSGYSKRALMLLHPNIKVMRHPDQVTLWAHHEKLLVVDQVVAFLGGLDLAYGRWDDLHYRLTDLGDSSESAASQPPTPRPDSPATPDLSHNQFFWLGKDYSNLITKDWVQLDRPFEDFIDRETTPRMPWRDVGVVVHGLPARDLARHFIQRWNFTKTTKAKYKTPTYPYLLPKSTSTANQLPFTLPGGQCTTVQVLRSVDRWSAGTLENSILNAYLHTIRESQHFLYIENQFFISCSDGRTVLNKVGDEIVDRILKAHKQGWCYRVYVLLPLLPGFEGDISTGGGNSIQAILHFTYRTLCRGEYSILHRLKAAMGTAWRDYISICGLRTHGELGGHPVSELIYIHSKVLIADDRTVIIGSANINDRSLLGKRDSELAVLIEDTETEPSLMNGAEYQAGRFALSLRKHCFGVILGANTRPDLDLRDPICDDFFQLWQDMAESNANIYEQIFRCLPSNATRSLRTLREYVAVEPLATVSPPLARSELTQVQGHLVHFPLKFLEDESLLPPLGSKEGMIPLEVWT
Phospholipase D2 (Homo sapiens) + Phospholipase D2 (Homo sapiens), sequence (O14939 whole entry, looked up): as above

SMILES | IC50 [nM]
C[C@@H](CN1CCC2(CC1)C(=O)NCN2c1cccc(F)c1)NC(=O)c1ccc(Br)cc1 | 84
COc1cc(C(=O)NCCN2CCC3(CC2)C(=O)NCN3c2cccc(F)c2)cc(OC)c1OC | 1430
